According to PubChem BioAssay (NCI):
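Test compounds were applied to cells in 96-well plates for 48 hours at 5 doses. GI50 is the concentration that inhibits growth by half. TGI is the concentration that stops growth completely.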

How the values were obtained:
Experiment in all cases: inhibition of tumour cell growth, NCI panel, 48 h
MDA-MB-435 = system: MDA-MB-435
NCI-H460 lung = system: NCI-H460 lung
SF-539 CNS = system: SF-539 CNS
HS 578T breast = system: HS 578T breast
CAKI-1 renal = system: CAKI-1 renal
HCC-2998 colon = system: HCC-2998 colon
NCI-H522 lung = system: NCI-H522 lung
EKVX NSCLC = system: EKVX NSCLC
UACC-257 melanoma = system: UACC-257 melanoma
OVCAR-5 ovarian = system: OVCAR-5 ovarian
NCI-H23 lung = system: NCI-H23 lung
RPMI-8226 leukemia = system: RPMI-8226 leukemia
SK-MEL-2 melanoma = system: SK-MEL-2 melanoma
BT-549 breast = system: BT-549 breast
A498 renal = system: A498 renal
SF-268 CNS = system: SF-268 CNS
UACC-62 melanoma = system: UACC-62 melanoma
NCI-H226 lung = system: NCI-H226 lung
CCRF-CEM leukemia = system: CCRF-CEM leukemia
T-47D breast = system: T-47D breast
HOP-92 NSCLC = system: HOP-92 NSCLC
MALME-3M melanoma = system: MALME-3M melanoma
SK-MEL-28 melanoma = system: SK-MEL-28 melanoma
OVCAR-8 ovarian = system: OVCAR-8 ovarian
IGROV1 ovarian = system: IGROV1 ovarian
MDA-MB-231 breast = system: MDA-MB-231 breast
HCT-15 colon = system: HCT-15 colon
K-562 leukemia = system: K-562 leukemia
ACHN renal = system: ACHN renal
786-0 renal = system: 786-0 renal
OVCAR-4 ovarian = system: OVCAR-4 ovarian
M14 melanoma = system: M14 melanoma
MOLT-4 leukemia = system: MOLT-4 leukemia
OVCAR-3 ovarian = system: OVCAR-3 ovarian
MCF7 breast = system: MCF7 breast
HL-60(TB) leukemia = system: HL-60(TB) leukemia
PC-3 prostate = system: PC-3 prostate
SK-MEL-5 melanoma = system: SK-MEL-5 melanoma
SK-OV-3 ovarian = system: SK-OV-3 ovarian
U251 CNS = system: U251 CNS
COLO 205 colon = system: COLO 205 colon
SR leukemia = system: SR leukemia
HCT-116 colon = system: HCT-116 colon
UO-31 renal = system: UO-31 renal
SF-295 CNS = system: SF-295 CNS
SNB-75 CNS = system: SNB-75 CNS
LOX IMVI melanoma = system: LOX IMVI melanoma
NCI/ADR-RES ovarian = system: NCI/ADR-RES ovarian
SW-620 colon = system: SW-620 colon
RXF 393 renal = system: RXF 393 renal
HOP-62 NSCLC = system: HOP-62 NSCLC
SNB-19 CNS = system: SNB-19 CNS
TK-10 renal = system: TK-10 renal
A549 NSCLC = system: A549 NSCLC
SN12C renal = system: SN12C renal
DU-145 prostate = system: DU-145 prostate
HT29 colon = system: HT29 colon
KM12 colon = system: KM12 colon

## Cc1oc2c(C(=O)N/N=C\c3ccc(O)cc3O)c[nH]c2c1C
MDA-MB-435
  GI50: 4.52 µM
  TGI: > 100 µM
NCI-H460 lung
  GI50: 0.347 µM
  TGI: 7.28 µM
SF-539 CNS
  GI50: 0.84 µM
  TGI: 12.5 µM
HS 578T breast
  GI50: 6.71 µM
  TGI: > 60.7 µM
CAKI-1 renal
  GI50: 0.739 µM
  TGI: 26.7 µM
HCC-2998 colon
  GI50: 0.876 µM
  TGI: > 50.6 µM
NCI-H522 lung
  GI50: 0.704 µM
  TGI: 63.9 µM
EKVX NSCLC
  GI50: 0.46 µM
  TGI: > 54.2 µM
UACC-257 melanoma
  GI50: 0.644 µM
  TGI: 3.08 µM
OVCAR-5 ovarian
  GI50: 3.89 µM
  TGI: > 45.2 µM
NCI-H23 lung
  GI50: 1.49 µM
  TGI: 24.3 µM
RPMI-8226 leukemia
  GI50: 0.445 µM
  TGI: 17.4 µM
SK-MEL-2 melanoma
  GI50: 10.4 µM
  TGI: > 100 µM
BT-549 breast
  GI50: 2.05 µM
  TGI: > 54.6 µM
A498 renal
  GI50: 6.62 µM
  TGI: 39.3 µM
SF-268 CNS
  GI50: 0.662 µM
  TGI: > 44.4 µM
UACC-62 melanoma
  GI50: 0.665 µM
  TGI: 8.32 µM
NCI-H226 lung
  GI50: 4.14 µM
  TGI: 24.3 µM
CCRF-CEM leukemia
  GI50: 0.19 µM
  TGI: > 100 µM
T-47D breast
  GI50: 1.79 µM
  TGI: > 43.2 µM
HOP-92 NSCLC
  GI50: 0.541 µM
  TGI: 9.21 µM
MALME-3M melanoma
  GI50: 2.23 µM
  TGI: 25.3 µM
SK-MEL-28 melanoma
  GI50: 2.12 µM
  TGI: > 41.7 µM
OVCAR-8 ovarian
  GI50: 0.664 µM
  TGI: 39.7 µM
IGROV1 ovarian
  GI50: 0.593 µM
  TGI: 44.5 µM
MDA-MB-231 breast
  GI50: 8.13 µM
  TGI: > 45.9 µM
HCT-15 colon
  GI50: 0.175 µM
  TGI: > 100 µM
K-562 leukemia
  GI50: 1.14 µM
  TGI: > 100 µM
ACHN renal
  GI50: 0.339 µM
  TGI: 13.7 µM
786-0 renal
  GI50: 0.464 µM
  TGI: 7.49 µM
OVCAR-4 ovarian
  GI50: 0.414 µM
  TGI: > 47.1 µM
M14 melanoma
  GI50: 0.756 µM
  TGI: 17.3 µM
MOLT-4 leukemia
  GI50: 0.44 µM
  TGI: > 100 µM
OVCAR-3 ovarian
  GI50: 0.368 µM
  TGI: > 39.4 µM
MCF7 breast
  GI50: 0.521 µM
  TGI: > 33.6 µM
HL-60(TB) leukemia
  GI50: 0.337 µM
PC-3 prostate
  GI50: 0.579 µM
  TGI: > 45.6 µM
SK-MEL-5 melanoma
  GI50: 1.02 µM
  TGI: 15.7 µM
SK-OV-3 ovarian
  GI50: 0.68 µM
  TGI: 17.4 µM
U251 CNS
  GI50: 0.57 µM
  TGI: 15.4 µM
COLO 205 colon
  GI50: 0.29 µM
SR leukemia
  GI50: 4.47 µM
  TGI: > 100 µM
HCT-116 colon
  GI50: 0.424 µM
  TGI: 32.5 µM
UO-31 renal
  GI50: 0.208 µM
  TGI: 13.9 µM
SF-295 CNS
  GI50: 0.435 µM
  TGI: 29.6 µM
SNB-75 CNS
  GI50: 3.57 µM
  TGI: > 39.6 µM
LOX IMVI melanoma
  GI50: 0.409 µM
  TGI: 10.6 µM
NCI/ADR-RES ovarian
  GI50: 0.295 µM
  TGI: 23.3 µM
SW-620 colon
  GI50: 0.801 µM
  TGI: > 37 µM
RXF 393 renal
  GI50: 0.58 µM
  TGI: 16.7 µM
HOP-62 NSCLC
  GI50: 0.754 µM
  TGI: 26.3 µM
SNB-19 CNS
  GI50: 1.32 µM
  TGI: > 42 µM
TK-10 renal
  GI50: 1.03 µM
  TGI: > 64.8 µM
A549 NSCLC
  GI50: 0.518 µM
  TGI: 13.2 µM
SN12C renal
  GI50: 2.54 µM
  TGI: > 48.4 µM
DU-145 prostate
  GI50: 1.32 µM
  TGI: > 41.1 µM
HT29 colon
  GI50: 2.85 µM
  TGI: > 48.2 µM
KM12 colon
  GI50: 1.1 µM
  TGI: > 73.4 µM

## Cc1ccc(CN(C)c2ccc(CO)c(Cl)c2)cc1
MDA-MB-435
  GI50: 29.8 µM
  TGI: > 100 µM
NCI-H460 lung
  GI50: 1.17 µM
  TGI: 11.5 µM
SF-539 CNS
  GI50: 30 µM
  TGI: > 94.1 µM
HS 578T breast
  GI50: 26.2 µM
  TGI: > 100 µM
CAKI-1 renal
  GI50: 2.4 µM
  TGI: 45.8 µM
HCC-2998 colon
  GI50: 13.9 µM
  TGI: > 60.6 µM
NCI-H522 lung
  GI50: 17.2 µM
  TGI: 65.6 µM
EKVX NSCLC
  GI50: 18.6 µM
  TGI: 79.7 µM
UACC-257 melanoma
  GI50: 0.344 µM
  TGI: 1.31 µM
OVCAR-5 ovarian
  GI50: 0.446 µM
  TGI: 2.48 µM
NCI-H23 lung
  GI50: 12.6 µM
  TGI: > 80 µM
RPMI-8226 leukemia
  GI50: 10.2 µM
  TGI: > 65.2 µM
SK-MEL-2 melanoma
  GI50: 8.26 µM
  TGI: 31 µM
BT-549 breast
  GI50: 13.2 µM
  TGI: 37 µM
A498 renal
  GI50: 0.056 µM
  TGI: 0.196 µM
SF-268 CNS
  GI50: 30.8 µM
  TGI: > 100 µM
UACC-62 melanoma
  GI50: 0.282 µM
  TGI: 2.71 µM
NCI-H226 lung
  GI50: 0.119 µM
  TGI: 0.257 µM
CCRF-CEM leukemia
  GI50: 33.7 µM
  TGI: > 100 µM
T-47D breast
  GI50: 0.367 µM
  TGI: 2.4 µM
HOP-92 NSCLC
  GI50: 1.98 µM
  TGI: 36.7 µM
MALME-3M melanoma
  GI50: 19.7 µM
  TGI: 59 µM
SK-MEL-28 melanoma
  GI50: 15.6 µM
  TGI: 53.6 µM
OVCAR-8 ovarian
  GI50: 14.3 µM
  TGI: > 80.1 µM
IGROV1 ovarian
  GI50: 0.363 µM
  TGI: 2.52 µM
MDA-MB-231 breast
  GI50: 21.9 µM
  TGI: > 100 µM
HCT-15 colon
  GI50: 13.4 µM
  TGI: > 100 µM
K-562 leukemia
  GI50: 6.05 µM
  TGI: > 100 µM
ACHN renal
  GI50: 23.6 µM
  TGI: > 100 µM
786-0 renal
  GI50: 11.8 µM
  TGI: 31.9 µM
OVCAR-4 ovarian
  GI50: 1.52 µM
  TGI: 13.7 µM
M14 melanoma
  GI50: 20.9 µM
  TGI: > 65.1 µM
MOLT-4 leukemia
  GI50: 25.4 µM
  TGI: > 79.7 µM
OVCAR-3 ovarian
  GI50: 3.06 µM
  TGI: 12.5 µM
MCF7 breast
  GI50: 0.676 µM
  TGI: 12 µM
HL-60(TB) leukemia
  GI50: 15.1 µM
  TGI: 56 µM
PC-3 prostate
  GI50: 24.2 µM
  TGI: 97.5 µM
SK-MEL-5 melanoma
  GI50: 5.44 µM
  TGI: 18 µM
SK-OV-3 ovarian
  GI50: 5.8 µM
  TGI: 30.3 µM
U251 CNS
  GI50: 3.92 µM
  TGI: 39.9 µM
COLO 205 colon
  GI50: 3.24 µM
  TGI: 10.5 µM
SR leukemia
  GI50: 23.7 µM
  TGI: > 86.8 µM
HCT-116 colon
  GI50: 0.395 µM
  TGI: 11.6 µM
UO-31 renal
  GI50: 6.54 µM
  TGI: 75.9 µM
SF-295 CNS
  GI50: 3.37 µM
  TGI: > 76 µM
SNB-75 CNS
  GI50: 17.2 µM
  TGI: 78.2 µM
LOX IMVI melanoma
  GI50: 17.9 µM
  TGI: > 52.7 µM
NCI/ADR-RES ovarian
  GI50: 16.1 µM
  TGI: 63.2 µM
SW-620 colon
  GI50: 5.23 µM
  TGI: > 100 µM
RXF 393 renal
  GI50: 6.9 µM
  TGI: 26.5 µM
HOP-62 NSCLC
  GI50: 3.44 µM
  TGI: 29.9 µM
SNB-19 CNS
  GI50: 34.8 µM
  TGI: > 100 µM
TK-10 renal
  GI50: 0.194 µM
  TGI: 0.938 µM
A549 NSCLC
  GI50: 3.69 µM
  TGI: 27.7 µM
SN12C renal
  GI50: 14 µM
  TGI: 49.5 µM
DU-145 prostate
  GI50: 22.6 µM
  TGI: > 100 µM
HT29 colon
  GI50: 6.07 µM
  TGI: 30 µM
KM12 colon
  GI50: 21.3 µM
  TGI: 72 µM
